From paper PMC6009871, “Anion inhibition studies of a beta carbonic anhydrase from the malaria mosquito Anopheles gambiae” (Journal of Enzyme Inhibition and Medicinal Chemistry, 2018)

What follows are molecules tested against T1, AgaCA (Anopheles gambiae, UniProt Q5TU56) (assay: biochemical). Details: not given.
T1 construct: gene 1272966; full-length beta-CA, C-terminal thrombin site and His6 tag (tag removed by thrombin), baculovirus/Sf9
T1 sequence (Q5TU56 1-255): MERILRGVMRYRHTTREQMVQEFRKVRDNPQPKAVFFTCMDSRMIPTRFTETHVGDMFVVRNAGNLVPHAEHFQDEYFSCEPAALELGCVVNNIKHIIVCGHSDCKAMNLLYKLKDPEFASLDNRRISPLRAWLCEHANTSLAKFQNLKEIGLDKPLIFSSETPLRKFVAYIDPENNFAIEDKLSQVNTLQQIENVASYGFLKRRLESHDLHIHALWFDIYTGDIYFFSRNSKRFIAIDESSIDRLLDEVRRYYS
`N#CS` [SCN^−] was tested, and the Ki was 6.41 mM.
With `O=S(=O)(O)O` [SO4^2−] the Ki was 9.03 mM.
`O=P(O)(O)OP(=O)(O)O` [P2O7^4−] was tested, and the Ki was 8.52 mM.

Same assay, conditions: read-out: AgaCA^c
`NS(N)(=O)=O` [H2NSO2NH2] showed a Ki of 0.054 mM.
With `O=NO` [NO2^−] the Ki was 4.55 mM.
`F` [F^−] showed a Ki of 9.42 mM.
`[O]=[V]([OH])([OH])[O][V](=[O])([OH])[OH]` [V2O7^4−] was tested, and the Ki was 7.98 mM.
With `N#C[SeH]` [SeCN^−] the Ki was 8.68 mM.
With `Cl` [Cl^−] the Ki was 8.74 mM.
Molecule `OB(O)c1ccccc1` [Ph-B(OH)2] has a Ki of 0.047 mM.
Work on `O=[Te](=O)(O)O` [TeO4^2−] yielded a Ki of 4.96 mM.
For `S` [HS^−], the Ki was 25.1 mM.
`O=[N+]([O-])O` [NO3^−] was tested, and the Ki was 6.5 mM.
`S=C(S)S` [CS3^2−] gave a Ki of 8.19 mM.
Work on `N#CO` [CNO^−] yielded a Ki of 9.46 mM.
`O=[Se](=O)(O)O` [SeO4^2−] showed a Ki of 9.41 mM.
`[O]=[Sn]([OH])[OH]` [SnO3^2−] gave a Ki of 1.8 mM.
For `CCN(CC)C(=S)S` [Et2NCS2^−], the Ki was 0.65 mM.

Same assay, conditions: read-out: KI [mM]^e / hCA I^a
`NS(=O)(=O)O` [H2NSO3H] showed a Ki of 0.021 mM.
